As usually defined, the Kd is the equilibrium constant for the complex coming apart. The term IC50 denotes the concentration that inhibits the measured activity by half. For orientation: EC50 means the concentration giving half of the maximal effect.

The target of assay [1] is T1, human calcium channel alpha1G-c (Homo sapiens, UniProt O43497).
T1 construct: first reported cloning of a full length DNA molecule encoding the; expressed in transfected cells; host or cells: Xenopus laevis oocytes injected with cRNA transcribed from pGEM HE
T1 sequence (O43497 1-2273 isoform O43497-6): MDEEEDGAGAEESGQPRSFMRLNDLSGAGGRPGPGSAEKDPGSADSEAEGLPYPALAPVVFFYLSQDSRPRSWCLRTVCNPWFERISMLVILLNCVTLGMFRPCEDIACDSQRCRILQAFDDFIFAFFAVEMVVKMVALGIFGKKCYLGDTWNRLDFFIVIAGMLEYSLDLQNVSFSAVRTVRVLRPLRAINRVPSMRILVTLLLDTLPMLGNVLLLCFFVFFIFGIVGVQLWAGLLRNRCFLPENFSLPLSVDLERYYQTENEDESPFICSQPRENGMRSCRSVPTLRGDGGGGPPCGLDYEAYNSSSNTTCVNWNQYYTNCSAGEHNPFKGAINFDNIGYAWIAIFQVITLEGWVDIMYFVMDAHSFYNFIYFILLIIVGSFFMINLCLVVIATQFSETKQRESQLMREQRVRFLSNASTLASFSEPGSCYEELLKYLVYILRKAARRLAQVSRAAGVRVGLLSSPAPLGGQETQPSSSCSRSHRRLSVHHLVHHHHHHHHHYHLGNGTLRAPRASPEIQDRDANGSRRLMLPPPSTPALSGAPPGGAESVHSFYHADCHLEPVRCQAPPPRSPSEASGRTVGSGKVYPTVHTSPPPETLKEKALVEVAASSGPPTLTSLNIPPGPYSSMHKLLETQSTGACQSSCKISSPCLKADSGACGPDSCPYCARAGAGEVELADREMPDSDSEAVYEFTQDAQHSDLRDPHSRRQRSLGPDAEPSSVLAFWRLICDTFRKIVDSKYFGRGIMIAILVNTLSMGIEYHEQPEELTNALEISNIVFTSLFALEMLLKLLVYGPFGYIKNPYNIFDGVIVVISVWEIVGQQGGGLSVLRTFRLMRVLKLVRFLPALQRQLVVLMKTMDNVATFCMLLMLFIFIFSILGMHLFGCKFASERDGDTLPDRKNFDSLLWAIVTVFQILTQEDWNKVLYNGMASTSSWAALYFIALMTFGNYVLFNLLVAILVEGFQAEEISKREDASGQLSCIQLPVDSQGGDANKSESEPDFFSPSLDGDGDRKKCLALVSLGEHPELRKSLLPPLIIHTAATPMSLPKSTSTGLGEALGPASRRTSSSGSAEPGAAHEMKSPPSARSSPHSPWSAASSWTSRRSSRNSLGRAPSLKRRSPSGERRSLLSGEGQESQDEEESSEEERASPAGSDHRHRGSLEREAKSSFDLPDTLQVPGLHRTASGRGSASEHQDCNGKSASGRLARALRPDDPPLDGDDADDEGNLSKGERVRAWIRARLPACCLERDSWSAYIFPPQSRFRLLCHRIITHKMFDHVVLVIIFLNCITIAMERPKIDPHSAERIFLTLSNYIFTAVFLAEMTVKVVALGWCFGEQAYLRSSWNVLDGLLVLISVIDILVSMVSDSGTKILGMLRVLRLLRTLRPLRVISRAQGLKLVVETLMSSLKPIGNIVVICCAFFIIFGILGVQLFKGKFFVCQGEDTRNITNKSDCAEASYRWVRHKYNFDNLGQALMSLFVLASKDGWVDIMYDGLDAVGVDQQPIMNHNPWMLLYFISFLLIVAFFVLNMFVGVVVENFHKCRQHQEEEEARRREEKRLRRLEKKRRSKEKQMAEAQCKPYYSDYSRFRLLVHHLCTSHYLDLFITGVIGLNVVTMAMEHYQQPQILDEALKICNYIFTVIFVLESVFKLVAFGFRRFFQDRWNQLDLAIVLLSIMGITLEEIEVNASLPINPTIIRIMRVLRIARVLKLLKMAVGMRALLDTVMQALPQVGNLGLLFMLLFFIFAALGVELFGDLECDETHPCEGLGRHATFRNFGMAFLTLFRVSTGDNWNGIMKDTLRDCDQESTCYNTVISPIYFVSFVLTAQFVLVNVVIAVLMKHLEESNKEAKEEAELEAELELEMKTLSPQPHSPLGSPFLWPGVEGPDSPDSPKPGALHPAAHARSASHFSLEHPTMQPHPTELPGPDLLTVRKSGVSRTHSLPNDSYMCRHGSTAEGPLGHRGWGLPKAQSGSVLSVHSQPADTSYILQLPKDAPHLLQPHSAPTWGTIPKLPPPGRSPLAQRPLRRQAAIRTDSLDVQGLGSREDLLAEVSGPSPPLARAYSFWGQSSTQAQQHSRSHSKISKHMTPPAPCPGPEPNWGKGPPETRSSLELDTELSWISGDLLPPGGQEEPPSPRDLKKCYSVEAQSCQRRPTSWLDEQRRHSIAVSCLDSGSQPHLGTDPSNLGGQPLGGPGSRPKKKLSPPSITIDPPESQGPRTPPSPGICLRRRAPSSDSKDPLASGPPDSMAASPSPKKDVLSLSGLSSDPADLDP
In words: two-electrode voltage clamp of Xenopus oocytes expressing human calcium channel alpha1G-c. In kind it is cell-based. To be noted: for block of peak human alpha1G-c currents / effect on peak human alpha1G-c currents: 100 μM; for block of peak current: 200 μM, clamped at −100 mV between test pulses. The method, then: Xenopus laevis oocytes were prepared and injected using standard methods previously described and known in the art (Fraser, S. P. et al. (1993)). Ovarian lobes from adult female Xenopus laevis (Nasco, Fort Atkinson, Wis.) were teased apart, rinsed several times in nominally Ca-free saline containing: 82.5 mM NaCl, 2.5 mM KCl, 1 mM MgCl2, 5 mM HEPES, adjusted to pH 7.0 with NaOH (OR-2), and gently shaken in OR-2 containing 0.2% collagenase Type 1 (ICN Biomedicals, Aurora, Ohio) for 2-5 hours. When approximately 50% of the follicular layers were removed, Stage V and VI oocytes were selected and rinsed in media consisting of 75% OR-2 and 25% ND-96. The ND-96 contained: 100 mM NaCl, 2 mM KCl, 1 mM MgCl2, 1.8 mM CaCl2, 5 mM HEPES, 2.5 mM Na pyruvate, gentamicin (50 ug/ml), adjusted to pH 7.0 with NaOH. […] The synthesized cRNA was precipitated with ammonium acetate and isopropanol, and resuspended in 50 μl nuclease-free water. cRNA was quantified using formaldehyde gels (1% agarose, 1×MOPS , 3% formaldehyde) against RNA markers (Gibco BRL, 0.24-9.5 Kb).
Oocytes were injected with 50 nl of the human calcium channel alpha1G-c cRNA (about 600 ng). Control oocytes were injected with 50 nl of water. Oocytes were incubated in ND-96 before analysis for expression of the human calcium channel alpha1G-c. Incubations and collagenase digestion were carried out at room temperature. Injected oocytes were maintained in 48 well cell culture clusters (Costar; Cambridge, Mass.) at 18° C. Whole cell agonist-induced currents were measured 3-6 days after injection with a conventional two-electrode voltage clamp (GeneClamp500, Axon Instruments, Foster City, Calif.) using standard methods previously described and known in the art (Dascal, N. (1987)). The microelectrodes were filled with 3 M KCl, which had resistances of 1 and 2 MΩ. Cells were continuously perfused with ND96 at 2-5 mi/min at room temperature unless indicated. In some experiments, cells were bathed in a 40 mM Ba saline containing (in mM): 40 BaCl2, 2 KCl, 36 TEA-Cl, 5 4-AP and 5 HEPES, pH 7.6. Membrane voltage was clamped at −100 mV unless indicated.
Oocytes were bathed in ND96,

Assay [2] concerns LVCC in hippocampal CA3 neurons. To be noted: 250 μM or 1 mM; cited from earlier work.
Another assay has as its target T2, human alpha1H (Homo sapiens, UniProt O95180).
T2 construct: host or cells: oocytes
To be noted: cited from earlier work; for IC50: expressed in oocytes.

For a further assay, the target named is L-type current. To be noted: neurons from one-day-old rats; cited from earlier work.
Assay [3] deals with T-type calcium channels from dorsal root ganglion neurons. To be noted: neurons from one-day-old rats, cited from earlier work.
The test system of assay [4] is T type currents from guinea pig or rat ventrobasal thalamic neurons. More on the design: maximal block: dose or concentration left out as unconfirmed. The following applies: cited from earlier work.
Another assay deals with mouse alpha1G. The following applies: cited from earlier work.
The subject of a further assay is T-type calcium channels. The following applies: range over cell types; read-out: EC50's depending on the cell type; cited from earlier work.

Read-outs that look alike come from different tables or passages of the source.

T2 sequence (O95180 whole entry): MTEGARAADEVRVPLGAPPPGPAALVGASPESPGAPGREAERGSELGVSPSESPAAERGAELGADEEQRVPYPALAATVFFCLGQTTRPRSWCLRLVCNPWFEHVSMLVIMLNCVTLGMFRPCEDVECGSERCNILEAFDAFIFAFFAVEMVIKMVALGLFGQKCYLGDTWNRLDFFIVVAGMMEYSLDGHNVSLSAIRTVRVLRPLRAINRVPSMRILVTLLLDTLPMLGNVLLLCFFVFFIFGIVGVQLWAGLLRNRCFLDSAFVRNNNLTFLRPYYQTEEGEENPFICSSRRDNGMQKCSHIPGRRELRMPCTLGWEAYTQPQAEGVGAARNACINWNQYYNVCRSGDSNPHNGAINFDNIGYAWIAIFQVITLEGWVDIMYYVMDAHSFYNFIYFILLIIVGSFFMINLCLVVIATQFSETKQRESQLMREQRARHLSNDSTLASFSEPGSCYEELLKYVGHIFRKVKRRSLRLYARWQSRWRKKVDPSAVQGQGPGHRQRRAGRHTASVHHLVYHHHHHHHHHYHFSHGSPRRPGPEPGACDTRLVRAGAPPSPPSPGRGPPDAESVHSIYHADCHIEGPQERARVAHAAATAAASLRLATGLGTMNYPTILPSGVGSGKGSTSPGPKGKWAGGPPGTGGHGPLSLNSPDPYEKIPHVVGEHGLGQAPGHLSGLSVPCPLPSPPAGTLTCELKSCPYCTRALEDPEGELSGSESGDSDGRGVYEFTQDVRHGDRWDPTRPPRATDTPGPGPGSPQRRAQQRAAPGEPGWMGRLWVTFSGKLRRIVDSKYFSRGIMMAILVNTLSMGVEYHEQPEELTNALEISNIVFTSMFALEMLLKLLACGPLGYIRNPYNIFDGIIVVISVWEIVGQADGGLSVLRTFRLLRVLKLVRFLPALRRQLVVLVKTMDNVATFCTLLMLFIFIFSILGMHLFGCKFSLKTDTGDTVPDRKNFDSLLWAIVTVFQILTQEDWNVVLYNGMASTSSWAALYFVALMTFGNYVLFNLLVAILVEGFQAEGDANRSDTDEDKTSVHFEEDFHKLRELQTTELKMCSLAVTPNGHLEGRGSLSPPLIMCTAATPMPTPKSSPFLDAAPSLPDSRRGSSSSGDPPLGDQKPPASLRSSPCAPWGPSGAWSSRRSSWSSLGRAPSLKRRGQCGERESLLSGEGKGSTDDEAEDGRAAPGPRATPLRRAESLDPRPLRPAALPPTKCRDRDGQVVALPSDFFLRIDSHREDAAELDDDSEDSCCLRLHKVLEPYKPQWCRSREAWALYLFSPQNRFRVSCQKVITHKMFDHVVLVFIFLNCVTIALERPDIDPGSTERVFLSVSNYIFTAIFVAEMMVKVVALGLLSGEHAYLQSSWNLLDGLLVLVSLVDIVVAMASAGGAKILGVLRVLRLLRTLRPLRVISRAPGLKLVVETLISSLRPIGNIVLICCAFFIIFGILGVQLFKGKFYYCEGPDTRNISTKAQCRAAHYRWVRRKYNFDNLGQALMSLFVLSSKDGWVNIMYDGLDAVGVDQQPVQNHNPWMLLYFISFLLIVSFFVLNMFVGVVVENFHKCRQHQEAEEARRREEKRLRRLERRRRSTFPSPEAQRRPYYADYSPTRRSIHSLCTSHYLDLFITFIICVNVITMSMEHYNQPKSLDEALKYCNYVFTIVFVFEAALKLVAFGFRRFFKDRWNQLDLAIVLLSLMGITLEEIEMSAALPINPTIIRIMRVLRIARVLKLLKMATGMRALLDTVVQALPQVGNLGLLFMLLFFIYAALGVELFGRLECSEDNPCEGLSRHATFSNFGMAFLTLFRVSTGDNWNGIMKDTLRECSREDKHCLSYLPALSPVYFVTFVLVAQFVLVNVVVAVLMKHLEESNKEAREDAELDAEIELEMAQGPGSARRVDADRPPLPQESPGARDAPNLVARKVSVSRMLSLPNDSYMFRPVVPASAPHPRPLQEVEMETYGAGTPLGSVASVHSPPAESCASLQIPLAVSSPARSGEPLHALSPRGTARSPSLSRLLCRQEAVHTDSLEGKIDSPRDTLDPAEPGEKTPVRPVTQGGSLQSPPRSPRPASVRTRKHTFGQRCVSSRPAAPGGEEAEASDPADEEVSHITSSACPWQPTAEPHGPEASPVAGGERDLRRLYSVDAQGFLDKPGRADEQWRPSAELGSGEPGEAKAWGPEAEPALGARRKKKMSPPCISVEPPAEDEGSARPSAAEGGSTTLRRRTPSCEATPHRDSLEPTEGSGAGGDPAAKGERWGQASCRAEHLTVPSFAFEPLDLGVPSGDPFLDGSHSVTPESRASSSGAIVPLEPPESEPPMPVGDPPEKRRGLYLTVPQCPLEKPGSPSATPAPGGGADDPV

As to `O=C(O)c1cccnc1Nc1cccc(C(F)(F)F)c1` [niflumic acid], in assay [1], the “block of peak human alpha1G-c currents” value is on record as 0+/−2% and the “effect on peak human alpha1G-c currents” value is “no effect”.
Consider `O=C(O)c1c2ccccc2cc2ccccc12` [9-AC, anthracene-9-carboxylic acid], for which the “block of peak human alpha1G-c currents” value in assay [1] is recorded as 30+/−3%.
Turning to `CCC1(C)CC(=O)NC1=O` (stereo not shown) [ethosuximide], in assay [2], the “sensitivity of all components of the LVCC” value is “insensitive”. Further, the “block of human alpha1H currents” value on human alpha1H (300 μM) is given as around 7%. The “sensitivity” value on human alpha1H is on record as “insensitive”. For the same molecule, the Kd at L-type current is 15 µM; in assay [3] (read-out: Kd for T-current), 7 µM. In assay [1] (600 μM, −100 mV between voltage pulses, ND96 and Ba2+ salines similar), the “reversible block of peak currents” value was 26+/−−3%. The “sensitivity of human alpha1G-c to block” value in assay [1] (expressed in oocytes) is listed as “sensitive”. For the same molecule, the maximal block in assay [3] is reported as 100%. In addition, in assay [4] (in 25% of the TCs tested), the “effect on T-currents” value is listed as “no effect”.
In the case of `O=C(O)c1cc([N+](=O)[O-])ccc1NCCCc1ccccc1` [NPPB, 5-Nitro-2-(3-phenylpropylamino)benzoic acid], the “block of human alpha1G-c currents” value in assay [1] (20 μM) is on record as 22+/−6%. Moreover, in assay [1], the “block of peak human alpha1G-c currents” value is listed as 55+/−7% and the “block of peak current” value was 89+/−7%. For the same molecule, the “sensitivity of human alpha1G-c to block” value in assay [1] (expressed in oocytes) is “blocked halpha1G-c currents”.
Take `[Cd+2]` [Cd^2+]: the “block of peak human alpha1G-c currents” value in assay [1] was 44+/−9%.
With `COCC(=O)O[C@]1(CCN(C)CCCc2nc3ccccc3[nH]2)CCc2cc(F)ccc2[C@@H]1C(C)C` [mibefradil, (1S,2S)-2-[2-[[3-(1H-benzimidazol-2-yl)propyl]methyl-amino]ethyl]-6-fluoro-1-isopropyl-1,2,3,4-tetrahydronaphthalen-2-yl methoxyacetate], the IC50 in the assay on mouse alpha1G (most prominent (low affinity) site) was around 0.4 µM; in assay [4] (majority of T type currents), around 500 µM. For the same molecule, in assay [4], the maximal block is listed as around 40%.
Regarding `[Cl][Ni][Cl]` [NiCl2], the “sensitivity” value in the assay on mouse alpha1G (as opposed to other T-type channels) is “very low sensitivity”. The IC50 on human alpha1H was around 6 µM. In addition, the “block of peak current” value in assay [1] was 25+/−6%. Also, the “current blocked relative to 200 μM” value in assay [1] (1 mM, same cell) is “about twice the current blocked by 200 μM Ni^2+”. Further, the “sensitivity of human alpha1G-c to block” value in assay [1] (expressed in oocytes) is on record as “relatively insensitive”.
With `O=S(=O)(O)c1cc(N=C=S)ccc1C=Cc1ccc(N=C=S)cc1S(=O)(=O)O` [DIDS, 4,4′-diisothiocyanatostilbene-2.2′-disulfonic acid], in assay [1], the “block of peak human alpha1G-c currents” value is listed as 16+/−13% and the “effect on peak human alpha1G-c currents” value was “no effect”.
Regarding `N=C(N)NC(=O)c1nc(Cl)c(N)nc1N` [amiloride], the IC50 on human alpha1H was around 20 µM. Further, the EC50 in the assay on T-type calcium channels was at least 50 µM. Further, in assay [1], the “block of peak currents” value was 23+/−4% and the “sensitivity of human alpha1G-c to block” value is “sensitive”.
